Experimental data taken from US20250171438A1 (Agios Pharmaceuticals, Inc., priority 2022, published 2025).

target: T1, human PAH with the R408W mutation (Homo sapiens, UniProt P00439, R408W); test: Cell Based Phenylalanine Flux Assay; settings: A375 cells expressing human R408W PAH; 24 hrs compound incubation; 13C-Tyrosine by LC-MS; average where tested multiple times; read-out: AC50
T1 construct: expressed in transfected cells
T1 sequence (P00439 1-452 R408W): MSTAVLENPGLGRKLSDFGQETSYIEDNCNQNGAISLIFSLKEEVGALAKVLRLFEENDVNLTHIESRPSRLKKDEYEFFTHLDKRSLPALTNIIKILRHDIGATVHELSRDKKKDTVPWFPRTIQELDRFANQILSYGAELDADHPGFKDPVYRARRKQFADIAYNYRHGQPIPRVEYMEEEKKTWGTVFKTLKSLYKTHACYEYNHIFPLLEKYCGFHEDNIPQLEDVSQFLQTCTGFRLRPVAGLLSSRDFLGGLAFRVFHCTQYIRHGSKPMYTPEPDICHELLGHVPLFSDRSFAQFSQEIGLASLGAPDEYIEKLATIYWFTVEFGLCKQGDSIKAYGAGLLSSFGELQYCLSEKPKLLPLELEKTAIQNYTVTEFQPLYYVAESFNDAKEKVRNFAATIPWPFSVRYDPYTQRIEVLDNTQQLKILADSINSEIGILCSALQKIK
Protocol: Compounds were resuspended in DMSO, and 2-fold serial dilutions were performed to generate a 10-point dose curve. Compounds were added to plated cells in a total volume of 100 pal, and a final DMSO concentration of 0.5%. Each compound was tested in duplicate. Following compound addition, cells were placed in a 5% CO2, 37° C. tissue culture incubator for 24 hrs. After the incubation period, 20 μM sepiapterin and 800 μM 13C9,15N-Phenylalanine were added. After 4 hours, cell media was removed. An aliquot of 10 μl of cell media was combined with 200 μl of extraction buffer (80% acetonitrile/20% H2O) for each well. Determination of ^13C-Tyrosine concentration was assessed by liquid chromatography mass spectrometry.
Where a compound was tested multiple times, the average value of the tests is reported.

AC50, 0.5 to 1 µM:
O=C(c1cnn2cc(Br)ccc12)N1CCc2[nH]cnc2[C@H]1c1nc2c(F)cccc2s1 [Example 1235]
C[C@@H]1CN(C(=O)c2nnc(-c3ccc(F)cn3)o2)[C@H](c2nc3ccccc3s2)c2nc[nH]c21 [Example 1754, ((4S,7R)-4-(benzo[d]thiazol-2-yl)-7-methyl-6,7-dihydro-1H-imidazo[4,5-c]pyridin-5(4H)-yl)(5-(5-fluoropyridin-2-yl)-1,3,4-oxadiazol-2-yl)methanone]
O=C(c1ccn2ncccc12)N1CCc2[nH]cnc2[C@H]1c1nc2ccccc2s1 [Example 1529]
O=C(c1cnc(C2CC2)o1)N1CCc2[nH]cnc2[C@H]1c1nc2ccccc2s1 [Example 1187]

AC50, < 0.5 µM:
Cc1nn2ccccc2c1C(=O)N1CCc2[nH]cnc2[C@H]1c1nc2ccccc2s1 [Example 1165]
O=C(c1scnc1C(F)(F)F)N1CCc2[nH]cnc2[C@@H]1c1nc2ccccc2s1 [Example 1342, (R)-(4-(benzo[d]thiazol-2-yl)-6,7-dihydro-1H-imidazo[4,5-c]pyridin-5(4H)-yl)(4-(trifluoromethyl)thiazol-5-yl)methanone]
O=C(c1oc(CCC2CC2)nc1C(F)(F)F)N1CCCc2[nH]cnc2[C@H]1c1nc2ccccc2s1 [Example 2135, (S)-(4-(benzo[d]thiazol-2-yl)-7,8-dihydroimidazo[4,5-c]azepin-5(1H,4H,6H)-yl)(2-(2-cyclopropylethyl)-4-(trifluoromethyl)oxazol-5-yl)methanone]
O=C(c1nnc(-c2c(F)cccc2F)o1)N1CCc2[nH]cnc2[C@H]1c1nc2ccccc2s1 [Example 1367]
O=C(c1cnn2ccc(Cl)cc12)N1CCc2[nH]cnc2[C@H]1c1nc2c(F)cccc2s1 [Example 1195]
O=C(c1oc(C2CC2)nc1C(F)F)N1CCc2[nH]cnc2[C@H]1c1nc2ccccc2s1 [Example 1621]
O=C(c1nnc(-c2ccc(F)cn2)o1)N1CCc2[nH]cnc2[C@@H]1c1nc2c(F)cccc2s1 [Example 1712, (R)-(4-(4-fluorobenzo[d]thiazol-2-yl)-6,7-dihydro-1H-imidazo[4,5-c]pyridin-5(4H)-yl)(5-(5-fluoropyridin-2-yl)-1,3,4-oxadiazol-2-yl)methanone]

AC50, > 5 µM:
Cc1nnc(C(=O)N2CCc3[nH]cnc3[C@@H]2c2nc3ccccc3s2)s1 [Example 1042, (R)-(4-(benzo[d]thiazol-2-yl)-6,7-dihydro-1H-imidazo[4,5-c]pyridin-5(4H)-yl)(5-methyl-1,3,4-thiadiazol-2-yl)methanone]
O=C(c1nnc(-c2ccccc2)s1)N1CCc2[nH]cnc2[C@@H]1c1nc2ccccc2s1 [Example 1420, (R)-(4-(benzo[d]thiazol-2-yl)-6,7-dihydro-1H-imidazo[4,5-c]pyridin-5(4H)-yl)(5-phenyl-1,3,4-thiadiazol-2-yl)methanone]
O=C(c1cnn2ccccc12)N1CCc2[nH]cnc2[C@@H]1c1nc2cccc(F)c2[nH]1 [Example 991, (R)-(4-(7-fluoro-1H-benzo[d]imidazol-2-yl)-6,7-dihydro-1H-imidazo[4,5-c]pyridin-5(4H)-yl)(pyrazolo[1,5-a]pyridin-3-yl)methanone]

AC50, 1 to 5 µM:
O=C(c1cc(C(F)(F)F)n[nH]1)N1CCc2[nH]cnc2[C@@H]1c1nc2c(F)cccc2s1 [Example 1815, (R)-(4-(4-fluorobenzo[d]thiazol-2-yl)-6,7-dihydro-1H-imidazo[4,5-c]pyridin-5(4H)-yl)(3-(trifluoromethyl)-1H-pyrazol-5-yl)methanone]
O=C(c1nnc(-c2cnn(C(F)F)c2)o1)N1CCc2[nH]cnc2[C@@H]1c1nc2c(F)cccc2s1 [Example 1823, (R)-(5-(1-(difluoromethyl)-1H-pyrazol-4-yl)-1,3,4-oxadiazol-2-yl)(4-(4-fluorobenzo[d]thiazol-2-yl)-6,7-dihydro-1H-imidazo[4,5-c]pyridin-5(4H)-yl)methanone]
O=C(c1cnc(C(F)(F)F)o1)N1CCc2[nH]cnc2[C@@H]1c1nc2c(F)cccc2s1 [Example 1402, (R)-(4-(4-fluorobenzo[d]thiazol-2-yl)-6,7-dihydro-1H-imidazo[4,5-c]pyridin-5(4H)-yl)(2-(trifluoromethyl)oxazol-5-yl)methanone]
O=C(c1cnc(-c2cnn(CC(F)(F)F)c2)s1)N1CCc2[nH]cnc2[C@@H]1c1nc2ccccc2s1 [Example 1362, (R)-(4-(benzo[d]thiazol-2-yl)-6,7-dihydro-1H-imidazo[4,5-c]pyridin-5(4H)-yl)(2-(1-(2,2,2-trifluoroethyl)-1H-pyrazol-4-yl)thiazol-5-yl)methanone]
O=C(c1oc(N2CCOCC2)nc1C(F)(F)F)N1CCCc2[nH]cnc2[C@H]1c1nc2ccccc2s1 [Example 2133, (S)-(4-(benzo[d]thiazol-2-yl)-7,8-dihydroimidazo[4,5-c]azepin-5(1H,4H,6H)-yl)(2-morpholino-4-(trifluoromethyl)oxazol-5-yl)methanone]
O=C(c1ncc(Cl)s1)N1CCc2[nH]cnc2[C@@H]1c1nc2cc(F)ccc2s1 [Example 1262, (R)-(5-chlorothiazol-2-yl)(4-(5-fluorobenzo[d]thiazol-2-yl)-6,7-dihydro-1H-imidazo[4,5-c]pyridin-5(4H)-yl)methanone]
O=C(c1cnn2ccccc12)N1CCc2[nH]cnc2[C@@H]1c1nc2ccccc2s1 [Example 1010, (R)-(4-(benzo[d]thiazol-2-yl)-6,7-dihydro-1H-imidazo[4,5-c]pyridin-5(4H)-yl)(pyrazolo[1,5-a]pyridin-3-yl)methanone]
O=C(c1nnc(C2CC(F)(F)C2)o1)N1CCc2[nH]cnc2[C@@H]1c1nc2c(F)cccc2s1 [Example 1891, (R)-(5-(3,3-difluorocyclobutyl)-1,3,4-oxadiazol-2-yl)(4-(4-fluorobenzo[d]thiazol-2-yl)-6,7-dihydro-1H-imidazo[4,5-c]pyridin-5(4H)-yl)methanone]
Cn1cc(-c2nnc(C(=O)N3CCc4[nH]cnc4[C@@H]3c3nc4ccccc4s3)o2)c(C(F)(F)F)n1 [Example 1884, (R)-(4-(benzo[d]thiazol-2-yl)-6,7-dihydro-1H-imidazo[4,5-c]pyridin-5(4H)-yl)(5-(1-methyl-3-(trifluoromethyl)-1H-pyrazol-4-yl)-1,3,4-oxadiazol-2-yl)methanone]
Cn1nc(C(F)F)cc1C(=O)N1CCc2[nH]cnc2[C@@H]1c1nc2c(F)cccc2s1 [Example 1732, (R)-(3-(difluoromethyl)-1-methyl-1H-pyrazol-5-yl)(4-(4-fluorobenzo[d]thiazol-2-yl)-6,7-dihydro-1H-imidazo[4,5-c]pyridin-5(4H)-yl)methanone]
CC(C)(O)c1nc(Br)c(C(=O)N2CCc3[nH]cnc3[C@@H]2c2nc3ccccc3s2)s1 [Example 2108, (R)-(4-(benzo[d]thiazol-2-yl)-6,7-dihydro-1H-imidazo[4,5-c]pyridin-5(4H)-yl)(4-bromo-2-(2-hydroxypropan-2-yl)thiazol-5-yl)methanone]
Cc1nc(-c2cnn(CC(F)(F)F)c2)oc1C(=O)N1CCc2[nH]cnc2[C@@H]1c1nc2c(F)cccc2s1 [Example 1505, (R)-(4-(4-fluorobenzo[d]thiazol-2-yl)-6,7-dihydro-1H-imidazo[4,5-c]pyridin-5(4H)-yl)(4-methyl-2-(1-(2,2,2-trifluoroethyl)-1H-pyrazol-4-yl)oxazol-5-yl)methanone]
O=C(c1nnc(N2CCOCC2)o1)N1CCc2[nH]cnc2[C@@H]1c1nc2ccccc2s1 [Example 1586, (R)-(4-(benzo[d]thiazol-2-yl)-6,7-dihydro-1H-imidazo[4,5-c]pyridin-5(4H)-yl)(5-morpholino-1,3,4-oxadiazol-2-yl)methanone]

same assay, conditions: A375 cells expressing human R408W PAH; 24 hrs with compound; 13C-Tyrosine by LC-MS; average where tested multiple times; read-out: AC50

AC50, > 5 µM:
O=C(N1CCC(c2ccccc2)C1)N1CCc2[nH]cnc2C1c1nc2ccccc2s1 (stereo not shown)
CC1CN(C(=O)c2cnn3cc(CN(C)C)ccc23)C(c2nc3ccccc3s2)c2nc[nH]c21 (stereo not shown)
O=C(c1ocnc1-c1ccccn1)N1CCCc2[nH]cnc2C1c1nc2ccccc2s1 (stereo not shown)

AC50, 1 to 5 µM:
Cn1ncnc1C(=O)N1CCc2[nH]cnc2C1c1nc2c(F)cccc2s1 (stereo not shown)
CN(C)Cc1nc(C(=O)N2CCc3[nH]cnc3C2c2nc3ccccc3s2)no1 (stereo not shown)
CNC(C)(C)c1nc(C)c(C(=O)N2CCc3[nH]cnc3C2c2nc3c(F)cccc3s2)o1 (stereo not shown)
O=C(c1nc2c(F)cccc2s1)N1CCc2[nH]cnc2[C@H]1c1nc2ccccc2[nH]1 [(S)-(4-(1H-benzo[d]imidazol-2-yl)-1,4,6,7-tetrahydro-5H-imidazo[4,5-c]pyridin-5-yl)(4-fluorobenzo[d]thiazol-2-yl)methanone]
Cc1ccn2ncc(C(=O)N3CCc4[nH]cnc4[C@H]3c3nc4ccccc4[nH]3)c2c1 [(S)-(4-(1H-benzo[d]imidazol-2-yl)-6,7-dihydro-1H-imidazo[4,5-c]pyridin-5(4H)-yl)(5-methylpyrazolo[1,5-a]pyridin-3-yl)methanone]
Cc1csc(C(=O)N2CCc3[nH]cnc3[C@H]2c2nc3ccccc3[nH]2)n1 [(S)-(4-(1H-benzo[d]imidazol-2-yl)-1,4,6,7-tetrahydro-5H-imidazo[4,5-c]pyridin-5-yl)(4-methylthiazol-2-yl)methanone]
O=C(Cc1ccccn1)N1CCc2[nH]cnc2C1c1nc2ccccc2s1 (stereo not shown)
